Entries after “also recorded” stand apart in the source; their conditions may differ.
Columns and labels:
[1] = test system: BJAB Burkitt lymphoma cells; assay: CellTiter-Glo Luminescent Cell Viability assay; format: cell-based; settings: 72 h; for effect on BJAB cell viability: top concentration 10 uM
Description: Compounds 1 and compound 28 were evaluated in a CellTiter-Glo (CTG) Luminescence cell viability assay in BJAB Burkitt lymphoma cells that are known to be sensitive to eIF4A inhibition. This assay quantitates the number of living, metabolically active cells by measuring their ATP levels.
Cell viability assay. BJAB lymphoma cells were plated in quadruplicate at 5,000 cells/well in serial dilutions of drug ranging two logs with the top concentration of compounds tested at 10 uM. Viability was measured after 72 h using Cell Titer Glo (Promega G7573) following the manufacturer's protocol. Luminescence was detected on the BioTek HT Synergy plate reader and values were normalized to vehicle-treated (DMSO) wells. Silvestrol was included as a positive control (not shown).

eIF4A [2] = biological target: T1, eIF4A (Homo sapiens, UniProt P60842); assay: FAM-RNA fluorescence polarization assay; format: binding; parameters: 6xHis with TEV protease site (N, cleaved yes); made in house; host or cells: E. coli BL21-CodonPlus; settings: FAM-A(CAA)5 RNA; for IC50: 2 μM eIF4A, read-out: IC50, FAM-RNA FP assay
T1 sequence (P60842 whole entry): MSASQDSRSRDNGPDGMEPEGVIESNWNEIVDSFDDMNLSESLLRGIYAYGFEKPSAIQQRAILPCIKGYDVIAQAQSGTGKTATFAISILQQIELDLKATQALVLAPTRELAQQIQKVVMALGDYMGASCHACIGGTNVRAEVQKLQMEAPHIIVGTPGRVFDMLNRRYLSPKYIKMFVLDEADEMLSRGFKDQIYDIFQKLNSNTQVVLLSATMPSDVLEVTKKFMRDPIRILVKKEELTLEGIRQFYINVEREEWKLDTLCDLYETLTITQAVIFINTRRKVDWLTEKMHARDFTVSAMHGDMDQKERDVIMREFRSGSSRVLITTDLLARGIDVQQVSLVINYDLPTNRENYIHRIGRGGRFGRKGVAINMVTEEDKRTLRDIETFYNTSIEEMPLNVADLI
Description: Next, an FP assay was performed with a fluorescent, eIF4A-binding RNA oligo (FAM-A(CAA)5) as the fluorophore. […] This same assay was used to investigate if changing the identity of the RNA fluorophore affected the ability of compound 28 to compete the RNA off eIF4A. […] This is evidence that compound 28 inhibits the RNA-eIF4A interaction by binding eIF4A and not the RNA.
FAM-RNA fluorescence polarization assay. Oligos were purchased from Integrated DNA Technologies using RNase free preparations. Recombinant eIF4A (2 μM) was incubated with 25 nM FAM-labelled RNA for 30 min in FP Buffer (15 mM HEPES-NaOH (pH 8), 100 mM NaCl, 1 mM MgCl2, 15% glycerol, 2 mM DTT, 2 mM AMPPNP) at 22° C. in low-volume black 384 well plates (Greiner). eIF4A was incubated with compound for 20 min prior to the addition of FAM-RNA. Plate was incubated for another 30 min before fluorescence polarization was read at 485:535 nm (Ex:Em) on a SpectraMax iD5 plate reader (Molecular Devices. IC50 values were calculated using GraphPad Prism v6.0.

eIF4A [3] = biological target: T1, eIF4A; assay: Helicase (duplex unwinding) assay; format: biochemical; parameters: 6xHis with TEV protease site (N, cleaved yes); made in house; host or cells: E. coli BL21-CodonPlus; settings: Cy3-RNA/DNA duplex, 2.5 μM eIF4A, 2 mM ATP
Description: A functional duplex unwinding assay with a duplex nucleic acid substrate was utilized to test if compound 1 and compound 28 could inhibit eIF4A helicase activity. This unwinding assay features a Cy3-labeled RNA strand annealed to a DNA strand with a long overhang that eIF4A can bind (FIG. 9, top right). When ATP is added to protein and substrate, eIF4A unwinds the duplex, leaving an unlabeled DNA strand and a Cy3-labeled single stranded RNA. When visualized on a native gel, the larger intact fluorescent duplex substrate will run higher on the gel than the smaller unwound single-stranded fluorescent RNA. The ratio of these two Cy3 signals can be used to determine the helicase activity of eIF4A in each condition.
Dose responses of compound 1 and compound 28 were conducted using this assay. […] The intensity of each band in each gel lane was quantified by densitometry to obtain IC50 values for compound 1 and compound 28 in this assay. […]
Helicase assay. […] All products were analyzed by electrophoresis on 20% native polyacrylamide (37.5:1 acrylamide:bisacrylamide) gels. Gels were run at 4° C. for 2 hours and Cy3 signal was detected on an Azure 600 Fluorescent Imaging System (Azure Biosystems) at 524 nm:572 nm (Ex:Em). Cy3 signal was quantified by gel band densitometry performed using ImageJ32 (NIH). IC50 values were calculated using GraphPad Prism v6.0.

SMILES	effect on BJAB cell viability [1]	competition of fluorescent RNA off eIF4A (eIF4A [2])	IC50 (eIF4A [2]) [µM]	inhibition of eIF4A duplex unwinding (eIF4A [3])	EC50 ([1]; Homo sapiens, CellTiter-Glo, n=4) [µM]
CCCCc1ccc(-c2ccc(-c3cc(C(=O)O)c4cc([N+](=O)[O-])ccc4n3)o2)cc1 [Compound 28, 2-(5-(4-butylphenyl)furan-2-yl)-6-nitroquinoline-4-carboxylic acid]	three to four times more potent than 1; also recorded: decrease BJAB cell viability	able to compete the fluorescent RNA off of eIF4A; also recorded: about three-fold more potent than 1	58.3 ± 2.5	about four-fold more potent than compound 1; also recorded: inhibit eIF4A duplex unwinding	
CCCCc1ccc(-c2ccc(-c3cc(C(=O)O)c4cc(Br)ccc4n3)o2)cc1 [Compound 1, 6-bromo-2-(5-(4-butylphenyl)furan-2-yl)quinoline-4-carboxylic acid]	decrease BJAB cell viability	able to compete the fluorescent RNA off of eIF4A	161 ± 9.8	inhibit eIF4A duplex unwinding	2.13 ± 0.17

Reference: US20240360107A1, “AN EIF4A INHIBITOR WITH A NOVEL MECHANISM OF ACTION” (ARIZONA BOARD OF REGENTS ON BEHALF OF THE UNIVERSITY OF …, priority 2021, published 2024)
